# Results from ChEMBL document CHEMBL4513101, “Naegleria gruberi Pathogen Box compounds screening” (2021).
# Active and inactive are the calls of the source. No stated cut-off is given here; in the data, active = inhibition of 80% or more and inactive = less.
# Test system: Naegleria gruberi
# Experiment: microbe, parasite or virus in culture
# Type: functional
# Settings: NEG-M, CONC 10 uM
# Description: Growth inhibiting activity of Naegleria gruberi in vitro
row,SMILES,inhibition at 10 µM
1,CNC(=O)C1Cc2c([nH]c3cc(Cl)ccc23)C2(CCN(CCc3ccccc3)CC2)N1 (centres undefined),11.5% (not active)
2,COc1cc(NC(C)CCCN)c2ncccc2c1 (centres undefined) [PRIMAQUINE],10.7% (not active)
3,CN(C)c1cc(NC(=O)Nc2ccccc2)c2ccccc2n1,22.3% (not active)
4,COc1cc2ncnc(NC3CCN(Cc4ccccc4)CC3)c2cc1OC,13.6% (not active)
5,CCCn1c(CNc2ccccc2O)nc2ccccc21,39.9% (not active)
6,CCN(CC)C(=O)N1CCN(C)CC1 [DIETHYLCARBAMAZINE],19% (not active)
7,CC(Oc1ccccc1)C(=O)Nc1nc(-c2ccccn2)cs1 (centres undefined),32.3% (not active)
8,C[C@H]1COc2c(N3CCN(C)CC3)c(F)cc3c(=O)c(C(=O)O)cn1c23 [LEVOFLOXACIN],0% (not active)
9,O=C(NCCc1ccccc1)c1cc(-c2cccnc2)cnc1NCC1CC1,37.7% (not active)
10,Cn1ccnc1CNCCS(=O)(=O)c1cccc(Nc2ccc(-c3cccc(F)c3)cn2)c1,26.5% (not active)
11,CC(C)(CN)c1nc(-c2ccc(Cl)c(O)c2)c(-c2ccnc(N)n2)[nH]1,6.4% (not active)
12,O=C(NCc1ccco1)N1CCN(Cc2ccc(Cl)s2)CC1,39.6% (not active)
13,O=C(Nc1ccc(N2CCNCC2)cc1)c1ccn2ncc(-c3cccc(Cl)c3)c2n1,18.8% (not active)
14,c1ccc(-c2cc(N3CCCCC3)c3ccccc3n2)nc1,20.7% (not active)
15,O=C(Nc1cccc(Cl)c1)c1cnc(N2CCN(c3ccncc3)CC2)c(Cl)c1,39.6% (not active)
16,CCc1ccc(C(NCc2nc(N)nc(N(C)C)n2)C(C)C)cc1 (centres undefined),18.9% (not active)
17,CCOc1ccc2cc(-c3nn(CC4CCN(C)CC4)c4ncnc(N)c34)ccc2c1,28% (not active)
18,COCC(C)NC(=O)CSc1ncnc2sc(-c3ccccc3)cc12 (centres undefined),45.7% (not active)
19,N=C(N)Nc1ccc(-c2ccc(-c3ccc(N=C(N)N)c(Cl)c3)o2)cc1Cl,22.3% (not active)
20,Nc1c2c(nc3sc4c(c13)CCCC4)CCCC2,48.3% (not active)
21,CCCCc1ccc(NC(=O)Nc2ccc(O[C@H]3CCCC[C@@H]3N(C)c3ccccc3)c(F)c2)cc1,41.1% (not active)
22,N=C(N)c1ccc(OCCCCCOc2ccc(C(=N)N)cc2)cc1 [PENTAMIDINE],43% (not active)
23,C[C@H](C(N)=O)N1CCCC[C@@H]1c1ccc(OCc2cccc(F)c2)cc1,13.9% (not active)

row,SMILES,inhibition at 10 µM
1,O=C(C1CCN(c2nnnn2-c2ccccc2)CC1)N1CCc2ccccc2C1,25.8% (not active)
2,COc1ccc(OC(C)C(=O)Nc2ccc(Cl)cc2C)cc1 (centres undefined),34% (not active)
3,Cc1nn(C)cc1C(C)Nc1nncc(-c2ccc(C(F)(F)F)cc2)n1 (centres undefined),0% (not active)
4,O=C(Nc1ccc(C(F)(F)F)c(C(F)(F)F)c1)c1cc(Cl)ccc1O,98.5% (active)
5,Cc1cc(Cl)ccc1NC(=O)CCc1ccc(S(=O)(=O)NCC(C)C)cc1,13.9% (not active)
6,COc1ccc(-c2cc(NC(=O)c3ccc(F)cc3Cl)ccc2OC)cc1,38.4% (not active)
7,CC(=O)NC[C@H]1CN(c2ccc(N3CCSCC3)c(F)c2)C(=O)O1 [SUTEZOLID],45.7% (not active)
8,Cc1nc2ccccn2c1C(=O)NCc1ccc(Cl)cc1,37.8% (not active)
9,COc1cc(C2=NCCN2)ccc1-n1cc(-c2cccc(C3=NCCN3)c2)nn1,16.2% (not active)
10,Cc1cc(NCC(C)C)c2[nH]nc(-c3ccccc3)c2n1,25.8% (not active)
11,COC(=O)Nc1nc2cc(C(=O)c3ccccc3)ccc2[nH]1 [MEBENDAZOLE],29.8% (not active)
12,CS(=O)(=O)Cc1nc2ccccc2oc1=O,38.8% (not active)
13,CCCCc1ccc(C(=O)Nc2nccc3ccccc23)nc1,43.2% (not active)
14,CCc1ccc(S(=O)(=O)Nc2cc(CN3CCN(CCC(C)C)CC3)ccc2C)cc1,48.7% (not active)
15,c1cncc(NCc2ccc(-c3cc4ccncc4cc3OC3CCNCC3)s2)c1,19.4% (not active)
16,O=[N+]([O-])c1cn2c(n1)OC[C@@H](OCc1ccc(OC(F)(F)F)cc1)C2 [PRETOMANID],16.1% (not active)
17,Nc1nc(N)c2c3c(sc2n1)CN(Cc1ccccc1)CC3,2.1% (not active)
18,CNc1snc(C)c1C(=O)NCCOc1ccc(OC)cc1,40.5% (not active)
19,O=C1Nc2ccc(Br)cc2C12NCCc1c2[nH]c2ccccc12 (centres undefined),33.5% (not active)
20,CN1CCN(S(=O)(=O)c2ccc(-c3ccc4c(Nc5ccc6nn[nH]c6c5)ccnc4c3)cc2)CC1,10.8% (not active)
21,CS(=O)(=O)c1ccc(C(=O)N(CC2CCCO2)c2nc3ccccc3s2)cc1[N+](=O)[O-] (centres undefined),58.7% (not active)
22,CCOc1ccc(OCC(=O)Nc2cc(C)cc(C)c2)cc1,0% (not active)
23,CNc1cc(C)nc(C2CN(C(=O)c3n[nH]c4ccccc34)CCO2)c1 (centres undefined),24.2% (not active)

row,SMILES,inhibition at 10 µM
1,COc1ccc(-c2nc(-c3cccc(NC(=O)Cc4ccc(F)cc4)c3)no2)cc1OC,35.4% (not active)
2,CC(C)(C)C(O)C(Oc1ccc(-c2ccccc2)cc1)n1cncn1 (centres undefined) [BITERTANOL],81% (active)
3,Cc1cc(C(=O)Nc2cnn(Cc3ccc(Cl)cc3Cl)c2)no1,65% (not active)
4,O=C(NC1CCN(c2ccnc3ccccc23)C1)c1cccc(C(F)(F)F)c1 (centres undefined),6.7% (not active)
5,N#Cc1nc(-c2ccccc2F)oc1NCCc1ccccc1,4.7% (not active)
6,CC(C)(C)CN1C(=O)C(c2ccccc2)(c2ccccc2)N=C1N,19.2% (not active)
7,COc1cc(C2=NCCN2)ccc1-c1cn(-c2cccc(C3=NCCN3)c2)nn1,20.1% (not active)
8,O=C(Nc1ccnc(-c2cccnc2)n1)c1cc(C(F)(F)F)cc(C(F)(F)F)c1,44.3% (not active)
9,NC(=O)c1cc(-c2ccsc2)ccc1OCCOc1ccccc1,43.7% (not active)
10,c1ccc(Oc2ccc(-c3cc(N4CCOCC4)[nH]n3)cc2)cc1,22.4% (not active)
11,Cc1cc(NCCc2ccccc2)nc(NC(=N)Nc2ccc(Cl)cc2)n1,19.6% (not active)
12,Nc1ncnc2c1ncn2[C@@H]1O[C@H](COS(=O)(=O)NC(=O)c2ccccc2O)[C@@H](O)[C@H]1O,14.5% (not active)
13,O=C(c1[nH]nc2c1CCCC2)N1CCN(Cc2ccc3c(c2)OCO3)CC1,29.5% (not active)
14,CN1CCN(c2nccc3[nH]c(-c4cccc(F)c4)cc23)CC1,0% (not active)
15,CC1COC(Cn2cncn2)(c2ccc(Oc3ccc(Cl)cc3)cc2Cl)O1 (centres undefined) [DIFENOCONAZOLE],73.3% (not active)
16,Clc1cccc(C(c2ccc(CN3CCNCC3)cc2)n2ccnc2)c1 (centres undefined),20.3% (not active)
17,O=C(C(Cc1c[nH]c2ccccc12)NS(=O)(=O)c1ccc(Cl)cc1)N1CCCCC1 (centres undefined),23.3% (not active)
18,FC(F)(F)c1cccc(-c2nc3c(NCc4ccncc4)nccc3[nH]2)c1,25.1% (not active)
19,COc1ccc(N(CCc2cccc(C)n2)C(=O)C2CCCCC2)cc1,20% (not active)
20,CC1CCCN(C(=O)C(C)Nc2cc(Cl)ccc2N2CCOCC2)C1 (centres undefined),43.8% (not active)
21,COc1ccc(OC)c(NCc2ccc3nc(N)nc(N)c3c2Cl)c1,33.6% (not active)
22,O=C(NC1CC1)c1ccc(N2CCC(Cc3ccccc3)CC2)nc1,59.1% (not active)
23,Cc1ccccc1CN1CCC(O)(c2ccc(Cl)c(C(F)(F)F)c2)CC1,47.4% (not active)

row,SMILES,inhibition at 10 µM
1,c1ccc(Oc2ccc(-c3cc(CN4CCOCC4)[nH]n3)cc2)cc1,3.2% (not active)
2,CC(=O)NCC1CN(c2ccc(-c3ccc(CO)cc3)c(F)c2)C(=O)O1 (centres undefined),35.1% (not active)
3,CN1CCN(c2cc(-c3ccc(F)cc3)nc(-c3ccncc3)n2)CC1,30% (not active)
4,O=C1[C@@H](Oc2ccccc2)[C@@H](c2ccc(Cl)cc2)N1CCn1cnc2c(NCc3ccccc3)ncnc21,0% (not active)
5,COc1ccc(-c2cnc3cnc(-c4cccc(OC(C)C)c4)cn23)cc1,9.4% (not active)
6,O=C1O[C@@H](CO)CN1c1cc(F)c(C2=CCN(Cc3ccccc3)CC2)c(F)c1,8.3% (not active)
7,O=C1COCc2ccc(Br)cc2N1Cc1ccc(C(F)(F)F)cc1,26.7% (not active)
8,O=C(NCCN1CCCC1)c1cc(NCCCCN2CCC(F)(F)CC2)nc2ccc(Cl)cc12,4.3% (not active)
9,CC(C)(C)c1cc(C(=O)N2CCN(c3nccnc3C#N)CC2)n(Cc2ccccc2)n1,31.6% (not active)
10,O=C(C1CCCCC1)N1CC(=O)N2CCc3ccccc3C2C1 (centres undefined) [PRAZIQUANTEL],41.5% (not active)
11,CCCCCCCCCCCCCCCCOP(=O)([O-])OCC[N+](C)(C)C [MILTEFOSINE],4% (not active)
12,CCCCOC(=O)Nc1cc2nc(C3CCCCC3)[nH]c2cc1N1CCCC1,64.3% (not active)
13,CN(C)CCNC(=O)N1CCCN(c2ncnc3cc(-c4ccccc4)sc23)CC1,29.4% (not active)
14,CC(=O)NCC1CN(c2ccc(-c3ccc(CNCc4cn[nH]n4)cc3)c(F)c2)C(=O)O1 (centres undefined),26.2% (not active)
15,CNC(=O)C1Cc2ccccc2N1C(=O)Cc1ccc(F)cc1 (centres undefined),38% (not active)
16,CC(C)(C)C(=O)N(CCCCCCN1C[C@H](O)[C@@H](O)[C@H](O)[C@H]1CO)C1CCCCCC1,0.1% (not active)
17,CCN(CC)CCCN1CCN(C(=O)c2cccc(-c3noc(C(F)(F)F)n3)c2)CC1,13% (not active)
18,Cc1cc(C)cc(COc2ccc3c(C)c(CCC(=O)O)c(=O)oc3c2C)c1,40.9% (not active)
19,CN(C(=O)c1cc2c(-c3cncnc3)cccc2[nH]1)c1ccccc1,27.7% (not active)
20,O=C(Nc1ccc(F)c(-c2nc3cc(-c4ccccc4)cnc3[nH]2)c1)N1CCCC1,49.5% (not active)
